According to the supplement of paper PMC10307832:

Tests used:
Assay in all cases: relative viability (nuclei count vs DMSO), 5 days (fraction); higher = more cells survive
MLN4924 + Bortezomib = compound: NS(=O)(=O)OC[C@@H]1C[C@@H](n2ccc3c(N[C@H]4CCc5ccccc54)ncnc32)C[C@@H]1O [MLN4924] + CC(C)C[C@H](NC(=O)[C@H](Cc1ccccc1)NC(=O)c1cnccn1)B(O)O [Bortezomib] (partner 0.002 µM)
In short: (§1)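 Lung cancer cell lines in 1536-well plates were dosed by pin tool the day after seeding, either with one drug alone or with a fixed anchor-drug dose plus five library-drug doses (not always all listed) in √10 steps. After 5 days, cells were fixed and their nuclei stained in one step (final 0.05% Triton X-100, 1% formaldehyde, 1 ug/ml Hoechst), then counted on 4× images. Relative viability is the nuclei count in treated wells divided by that in vehicle wells. Values are medians of duplicate plates.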

Carboplatin + OSI-027 = compound: C1CC(C1)(C(=O)O)C(=O)O.[NH2-].[NH2-].[Pt+2] [Carboplatin] + COc1cccc2cc(-c3nc([C@H]4CC[C@H](C(=O)O)CC4)n4ncnc(N)c34)[nH]c12 [OSI-027] (partner 0.5 µM)
In short: as §1

Carboplatin + Phenformin = compound: C1CC(C1)(C(=O)O)C(=O)O.[NH2-].[NH2-].[Pt+2] [Carboplatin] + N=C(N)NC(=N)NCCc1ccccc1 [Phenformin] (partner 250 µM)
In short: as §1

GSK126 + Bortezomib = compound: CC[C@H](C)N1C=C(C2=C(C=C(C=C21)C3=CN=C(C=C3)N4CCNCC4)C(=O)NCC5=C(C=C(NC5=O)C)C)C [GSK126] + CC(C)C[C@H](NC(=O)[C@H](Cc1ccccc1)NC(=O)c1cnccn1)B(O)O [Bortezomib] (partner 0.002 µM)
In short: as §1

| Cell Line | relative viability (MLN4924 + Bortezomib; first compound 0.04 µM) | relative viability (MLN4924 + Bortezomib; first compound 0.1265 µM) | relative viability (MLN4924 + Bortezomib; first compound 0.4 µM) | relative viability (MLN4924 + Bortezomib; first compound 1.265 µM) | relative viability (MLN4924 + Bortezomib; first compound 4 µM) | relative viability (Carboplatin + OSI-027; first compound 0.08 µM) | relative viability (Carboplatin + OSI-027; first compound 0.253 µM) | relative viability (Carboplatin + OSI-027; first compound 0.8 µM) | relative viability (Carboplatin + OSI-027; first compound 2.53 µM) | relative viability (Carboplatin + OSI-027; first compound 8 µM) | relative viability (Carboplatin + Phenformin; first compound 0.08 µM) | relative viability (Carboplatin + Phenformin; first compound 0.253 µM) | relative viability (Carboplatin + Phenformin; first compound 0.8 µM) | relative viability (Carboplatin + Phenformin; first compound 2.53 µM) | relative viability (Carboplatin + Phenformin; first compound 8 µM) | relative viability (GSK126 + Bortezomib; first compound 0.08 µM) | relative viability (GSK126 + Bortezomib; first compound 0.253 µM) | relative viability (GSK126 + Bortezomib; first compound 0.8 µM) | relative viability (GSK126 + Bortezomib; first compound 2.53 µM) | relative viability (GSK126 + Bortezomib; first compound 8 µM) |
| --- | --- | --- | --- | --- | --- | --- | --- | --- | --- | --- | --- | --- | --- | --- | --- | --- | --- | --- | --- | --- |
| HCC-78 | 0.568 | 0.397 | 0.51 | 0.241 | 0.229 | 0.433 | 0.368 | 0.341 | 0.379 | 0.375 | 0.829 | 0.685 | 0.641 | 0.726 | 0.744 | 0.464 | 0.466 | 0.374 | 0.562 | 0.389 |
| HCC-366 | 1.04 | 1.01 | 0.911 | 0.293 | 0.0253 | 1.07 | 0.979 | 0.911 | 0.955 | 0.486 | 0.619 | 0.637 | 0.662 | 0.575 | 0.467 | 1.1 | 1.05 | 1.03 | 1.06 | 1.05 |
| HCC-827 | 1.05 | 0.966 | 0.791 | 0.474 | 0.375 | 0.774 | 0.851 | 0.783 | 0.732 | 0.655 | 0.444 | 0.394 | 0.428 | 0.366 | 0.365 | 1.07 | 1.09 | 1.02 | 1.09 | 0.965 |
| HOP-62 | 0.392 | 0.402 | 0.117 | 0.0531 | 0.0923 | 0.905 | 0.808 | 0.823 | 0.777 | 0.726 | 0.713 | 0.643 | 0.628 | 0.654 | 0.548 | 0.645 | 0.816 | 0.862 | 0.837 | 0.724 |
| IA-LM | 0.381 | 0.202 | 0.0828 | 0.0567 | 0.0708 |  |  |  |  |  |  |  |  |  |  | 0.98 | 0.789 | 0.847 | 0.796 | 0.788 |
| LC-2-ad | 0.943 | 0.859 | 0.41 | 0.226 | 0.104 | 0.877 | 0.825 | 0.778 | 0.696 | 0.404 | 0.661 | 0.551 | 0.525 | 0.517 | 0.386 | 1.03 | 1.04 | 0.935 | 1.02 | 0.986 |
| LCLC-97TM1 | 0.403 | 0.46 | 0.107 | 0.046 | 0.0727 | 0.481 | 0.615 | 0.594 | 0.554 | 0.474 | 0.483 | 0.399 | 0.421 | 0.438 | 0.394 | 0.563 | 0.586 | 0.671 | 0.719 | 0.575 |
| LCLC-103H | 1.04 | 1.16 | 0.955 | 0.346 | 0.301 | 0.456 | 0.544 | 0.5 | 0.468 | 0.482 | 0.325 | 0.357 | 0.347 | 0.32 | 0.348 | 1.23 | 0.995 | 0.984 | 1.13 | 1.03 |
| LK-2 |  |  |  |  |  | 0.262 | 0.191 | 0.21 | 0.184 | 0.226 | 0.683 | 0.47 | 0.343 | 0.398 | 0.563 |  |  |  |  |  |
| LOU-NH91 | 0.418 | 0.484 | 0.38 | 0.393 | 0.329 | 0.811 | 0.72 | 0.75 | 0.761 | 0.73 | 0.871 | 0.646 | 0.714 | 0.708 | 0.675 | 0.444 | 0.475 | 0.498 | 0.439 | 0.501 |
| NCI-H358 |  |  |  |  |  | 1 | 0.878 | 0.8 | 0.843 | 0.611 | 0.426 | 0.418 | 0.395 | 0.431 | 0.334 |  |  |  |  |  |
| NCI-H522 |  |  |  |  |  | 0.741 | 0.711 | 0.567 | 0.685 | 0.7 | 0.516 | 0.679 | 0.648 | 0.686 | 0.64 |  |  |  |  |  |
| NCI-H1299 | 1.01 | 0.803 | 0.402 | 0.269 | 0.225 |  |  |  |  |  |  |  |  |  |  | 1.03 | 1.01 | 0.999 | 0.969 | 1.06 |
| NCI-H1395 |  |  |  |  |  | 0.83 | 0.597 | 0.674 | 0.527 | 0.52 | 0.476 | 0.446 | 0.497 | 0.379 | 0.402 |  |  |  |  |  |
| NCI-H1623 |  |  |  |  |  | 0.481 | 0.404 | 0.455 | 0.41 | 0.385 | 0.586 | 0.609 | 0.586 | 0.534 | 0.513 |  |  |  |  |  |
| NCI-H1648 |  |  |  |  |  | 0.238 | 0.258 | 0.247 |  | 0.265 |  |  |  |  |  |  |  |  |  |  |
| NCI-H1703 | 0.117 | 0.0992 | 0.138 | 0.111 | 0.123 |  |  |  |  |  |  |  |  |  |  | 0.444 | 0.339 | 0.191 | 0.407 | 0.209 |
| NCI-H1793 |  |  |  |  |  | 0.32 | 0.337 | 0.284 | 0.296 | 0.312 | 0.444 | 0.496 | 0.289 | 0.35 | 0.405 |  |  |  |  |  |
| NCI-H1944 |  |  |  |  |  | 0.539 | 0.407 | 0.41 | 0.382 | 0.317 | 0.217 | 0.193 | 0.186 | 0.181 | 0.181 |  |  |  |  |  |
| NCI-H2170 |  |  |  |  |  | 0.715 | 0.723 | 0.86 | 0.783 | 0.605 | 0.429 | 0.446 | 0.402 | 0.38 | 0.41 |  |  |  |  |  |
| NCI-H2342 |  |  |  |  |  | 0.785 | 0.731 | 0.717 | 0.534 | 0.608 | 0.759 | 0.709 | 0.616 | 0.638 | 0.615 |  |  |  |  |  |
| SK-MES-1 |  |  |  |  |  | 0.684 | 0.609 | 0.699 | 0.628 | 0.553 | 0.681 | 0.672 | 0.671 | 0.638 | 0.592 |  |  |  |  |  |
| SW 900 |  |  |  |  |  | 0.726 | 0.533 | 0.49 | 0.465 | 0.412 | 0.713 | 0.561 | 0.608 | 0.431 | 0.414 |  |  |  |  |  |
